Source: patent US20230081426A1, “COMPOUNDS AND METHODS FOR KRAS MODULATION AND INDICATIONS THEREFOR” (Plexxikon Inc., priority 2020, published 2023)

Columns and labels:
[1] = molecular target: T1, G12D-mutant human KRAS (amino acid residues 1-188) (Homo sapiens, UniProt P01116, G12D); assay: KRAS Binding Disruption Assay (AlphaScreen; biotinylated KRpep-2d analogue or RAF1-RBD), G12D; settings: KRAS G12D; geometric mean; read-out: KRAS GMean IC50 (uM) MUTATION: G12D
T1 construct: G12D or G12C-mutant human KRAS (amino acid residues 1-188) with FLAG tag; made in house; host or cells: E. coli
Method in brief: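 Mutant KRAS (5-20 nM) incubated 1 h at 25° C with test compound and 5-20 nM biotinylated KRpep-2d analogue or RAF1-RBD in 20 mM HEPES pH 7.5, 100 mM NaCl, 5 mM MgCl2, 0.01% Tween-20, 0.01% BSA.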

[2] = molecular target: T2, G12V-mutant human KRAS (amino acid residues 1-188) (Homo sapiens, UniProt P01116, G12V); assay: KRAS Binding Competition Assay (AlphaScreen; biotinylated KRpep-2d analogue), G12V; settings: geometric mean, read-out: KRAS GMean IC50 (uM) MUTATION: G12V
T2 construct: G12V-mutant human KRAS (amino acid residues 1-188) with FLAG tag was purified from E. coli; made in house; host or cells: E. coli

| IC50 [1] [µM] | IC50 [2] [µM] | SMILES |
| --- | --- | --- |
| 0.0001 to 10 | 10 to 100 | OCC1(COc2nc(N3C[C@H]4CC[C@@H](C3)N4)c3ccc(-c4cc(O)cc5ccccc45)c(F)c3n2)CC1 [P-0614, 4-(4-((1R,5S)-3,8-diazabicyclo[3.2.1]octan-3-yl)-8-fluoro-2-((l (hydroxymethyl)cyclopropyl)methoxy)quinazolin-7-yl)naphthalen-2-ol] |
| 0.0001 to 10 | 10 to 100 | N#CCc1cccc2[nH]cc(-c3ccc4c(N5C[C@H]6CC[C@@H](C5)N6)nc(OCC56CCCN5CCC6)nc4c3F)c12 [P-0615, 2-(3-(4-((1R,5S)-3,8-diazabicyclo[3.2.1]octan-3-yl)-8-fluoro-2-((tetrahydro-1H-pyrrolizin-7a(5H)-yl)methoxy)quinazolin-7-yl)-1H-indol-4-yl)acetonitrile] |
| 0.0001 to 10 | 10 to 100 | CNC(=O)CCOc1nc(N2C[C@H]3CC[C@@H](C2)N3)c2ccc(-c3cc(O)cc4ccccc34)c(F)c2n1 [P-0616, 3-((4-((1R,5S)-3,8-diazabicyclo[3.2.1]octan-3-yl)-8-fluoro-7-(3-hydroxynaphthalen-1-yl)quinazolin-2-yl)oxy)-N-methylpropanamide] |
| 0.0001 to 10 | 10 to 100 | Oc1cc(-c2ccc3c(N4C[C@H]5CC[C@@H](C4)N5)nc(OCC4CCC4O)nc3c2F)c2ccccc2c1 (stereo partly drawn) [P-0617, 4-(4-((1R,5S)-3,8-diazabicyclo[3.2.1]octan-3-yl)-8-fluoro-2-((2-hydroxycyclobutyl)methoxy)quinazolin-7-yl)naphthalen-2-ol] |
| 0.0001 to 10 | 10 to 100 | CC(C)(CN)COc1nc(N2C[C@H]3CC[C@@H](C2)N3)c2ccc(-c3cc(O)cc4ccccc34)c(F)c2n1 [P-0618, 4-(2-(3-amino-2,2-dimethylpropoxy)-4-((1R,5S)-3,8-diazabicyclo[3.2.1]octan-3-yl)-8-fluoroquinazolin-7-yl)naphthalen-2-ol] |
| 0.0001 to 10 | 10 to 100 | CC(C)(COc1nc(N2C[C@H]3CC[C@@H](C2)N3)c2ccc(-c3cc(O)cc4ccccc34)c(F)c2n1)NC(N)=O [P-0619, 1-(1-((4-((1R,5S)-3,8-diazabicyclo[3.2.1]octan-3-yl)-8-fluoro-7-(3-hydroxynaphthalen-1-yl)quinazolin-2-yl)oxy)-2-methylpropan-2-yl)urea] |
| 0.0001 to 10 | 10 to 100 | CC(C)(COc1nc(N2C[C@H]3CC[C@@H](C2)N3)c2ccc(-c3cc(O)cc4ccccc34)c(F)c2n1)C(N)=O [P-0620, 3-((4-((1R,5S)-3,8-diazabicyclo[3.2.1]octan-3-yl)-8-fluoro-7-(3-hydroxynaphthalen-1-yl)quinazolin-2-yl)oxy)-2,2-dimethylpropanamide] |
| 0.0001 to 10 | 10 to 100 | CNC(=O)C(C)(C)COc1nc(N2C[C@H]3CC[C@@H](C2)N3)c2ccc(-c3cc(O)cc4ccccc34)c(F)c2n1 [P-0621, 3-((4-((1R,5S)-3,8-diazabicyclo[3.2.1]octan-3-yl)-8-fluoro-7-(3-hydroxynaphthalen-1-yl)quinazolin-2-yl)oxy)-N,2,2-trimethylpropanamide] |
| 0.0001 to 10 | 10 to 100 | Oc1cc(-c2ccc3c(N4CC5CCC(C4)N5)nc(OCC4CCC(O)C4)nc3c2F)c2ccccc2c1 [P-0622, 4-(4-((1R,5S)-3,8-diazabicyclo[3.2.1]octan-3-yl)-8-fluoro-2-((3-hydroxycyclopentyl)methoxy)quinazo-lin-7-yl)naphthalen-2-ol] |
| 0.0001 to 10 | 10 to 100 | CN1CCc2c(cccc2Oc2nc(N3C[C@H]4CC[C@@H](C3)N4)c3ccc(-c4cc(O)cc5ccccc45)c(F)c3n2)C1 [P-0623, 4-(4-((1R,5S)-3,8-diazabicyclo[3.2.1]octan-3-yl)-8-fluoro-2-((2-methyl-1,2,3,4-tetrahydroisoquinolin-5-yl)oxy)quinazolin-7-yl)naphthalen-2-ol] |
| 0.0001 to 10 | 10 to 100 | O=Cc1cccc2[nH]cc(-c3c(F)cc4c(N5C[C@H]6CC[C@@H](C5)N6)nc(OCC56CCCN5CCC6)nc4c3F)c12 [P-0624, 3-(4-((1R,5S)-3,8-diazabicyclo[3.2.1]octan-3-yl)-6,8-difluoro-2-((tetrahydro-1H-pyrrolizin-7a(5H)-yl)methoxy)quinazolin-7-yl)-1H-indole-4-carbaldehyde] |
| 0.0001 to 10 | 0.0001 to 10 | Fc1c(-c2c[nH]c3cccc(C(F)F)c23)ccc2c(N3C[C@H]4CC[C@@H](C3)N4)nc(OCC34CCCN3CCC4)nc12 [P-0625, 4-((1R,5S)-3,8-diazabicyclo[3.2.1]octan-3-yl)-7-(4-(difluoromethyl)-1H-indol-3-yl)-8-fluoro-2-((tetrahydro-1H-pyrrolizin-7a(5H)-yl)methoxy)quinazoline] |
| 0.0001 to 10 | 10 to 100 | Cc1[nH]c2ccccc2c1-c1ccc2c(N3C[C@H]4CC[C@@H](C3)N4)nc(OCC34CCCN3CCC4)nc2c1F [P-0626, 4-((1R,5S)-3,8-diazabicyclo[3.2.1]octan-3-yl)-8-fluoro-7-(2-methyl-1H-indol-3-yl)-2-((tetrahydro-1H-pyrrolizin-7a(5H)-yl)methoxy)quinazoline] |
| 0.0001 to 10 | 0.0001 to 10 | CNC(=O)CN1[C@@H]2CC[C@H]1CN(c1nc(OCC34CCCN3CCC4)nc3c(F)c(-c4cc(O)cc5ccccc45)ccc13)C2 [P-0627, 2-((1R,5S)-3-(8-fluoro-7-(3-hydroxynaphthalen-1-yl)-2-((tetrahydro-1H-pyrrolizin-7a(5H)-yl)methoxy)quinazolin-4-yl)-3,8-diazabicyclo[3.2.1]octan-8-yl)-N-methylacetamide] |
| 0.0001 to 10 | 0.0001 to 10 | OCCCN1[C@@H]2CC[C@H]1CN(c1nc(OCC34CCCN3CCC4)nc3c(F)c(-c4cc(O)cc5ccccc45)ccc13)C2 [P-0628, 4-(8-fluoro-4-((1R,5S)-8-(3-hydroxypropyl)-3,8-diazabicyclo[3.2.1]octan-3-yl)-2-((tetrahydro-1H-pyrrolizin-7a(5H)-yl)methoxy)quinazolin-7-yl)naphthalen-2-ol] |
| 0.0001 to 10 | 10 to 100 | OCC1CN(c2nc(N3C[C@H]4CC[C@@H](C3)N4)c3ccc(-c4cc(O)cc5ccccc45)c(F)c3n2)CC1O (stereo partly drawn) [P-0629, 1-(4-((1R,5S)-3,8-diazabicyclo[3.2.1]octan-3-yl)-8-fluoro-7-(3-hydroxynaphthalen-1-yl)quinazolin-2-yl)-4-(hydroxymethyl)pyrrolidin-3-ol] |
| 0.0001 to 10 | 10 to 100 | CN(C)C(C)(C)CNc1nc(N2C[C@H]3CC[C@@H](C2)N3)c2ccc(-c3cc(O)cc4ccccc34)c(F)c2n1 [P-0630, 4-(4-((1R,5S)-3,8-diazabicyclo[3.2.1]octan-3-yl)-2-((2-(dimethylamino)-2-methylpropyl)amino)-8-fluoroquinazolin-7-yl)naphthalen-2-ol] |
| 0.0001 to 10 | 10 to 100 | Oc1cc(-c2ccc3c(N4C[C@H]5CC[C@@H](C4)N5)nc(NCC45CCCN4CCC5)nc3c2F)c2ccccc2c1 [P-0631, 4-(4-((1R,5S)-3,8-diazabicyclo[3.2.1]octan-3-yl)-8-fluoro-2-(((tetrahydro-1H-pyrrolizin-7a(5H)-yl)methyl)amino)quinazolin-7-yl)naphthalen-2-ol] |
| 0.0001 to 10 | 0.0001 to 10 | Oc1cc(-c2ccc3c(N4C[C@H]5CC[C@@H](C4)N5)nc(N4CC(N5CC(O)C5)C4)nc3c2F)c2ccccc2c1 [P-0632, 1′-(4-((1R,5S)-3,8-diazabicyclo[3.2.1]octan-3-yl)-8-fluoro-7-(3-hydroxynaphthalen-1-yl)quinazolin-2-yl)-[1,3′-biazetidin]-3-ol] |
| 0.0001 to 10 | 100 to 1000 | Oc1cc(-c2ccc3c(N4C[C@H]5CC[C@@H](C4)N5)nc(N4CC(O)C4)nc3c2F)c2ccccc2c1 [P-0633, 1-(4-((1R,5S)-3,8-diazabicyclo[3.2.1]octan-3-yl)-8-fluoro-7-(3-hydroxynaphthalen-1-yl)quinazolin-2-yl)azetidin-3-ol] |
| 0.0001 to 10 | 100 to 1000 | OCC1CCN(c2nc(N3C[C@H]4CC[C@@H](C3)N4)c3ccc(-c4cc(O)cc5ccccc45)c(F)c3n2)C1 (stereo partly drawn) [P-0634, 4-(4-((1R,5S)-3,8-diazabicyclo[3.2.1]octan-3-yl)-8-fluoro-2-(3-(hydroxymethyl)pyrrolidin-1-yl)quinazolin-7-yl)naphthalen-2-ol] |
| 0.0001 to 10 | 10 to 100 | CN(C)C1(C)CN(c2nc(N3C[C@H]4CC[C@@H](C3)N4)c3ccc(-c4cc(O)cc5ccccc45)c(F)c3n2)C1 [P-0635, 4-(4-((1R,5S)-3,8-diazabicyclo[3.2.1]octan-3-yl)-2-(3-(dimethylamino)-3-methylazetidin-1-yl)-8-fluoroquinazolin-7-yl)naphthalen-2-ol] |
